From PubChem BioAssay (NCI)
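A five-concentration, 48-hour dose response in 96-well plates underlies each endpoint, interpolated linearly between surrounding concentrations. Abbreviation: GI50, concentration required for 50% inhibition of growth. TGI: total growth inhibition.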

Assays:
Assay in all cases: inhibition of tumour cell growth, NCI panel, 48 h
[1] = system: SR leukemia
[2] = system: UACC-62 melanoma
[3] = system: SF-268 CNS
[4] = system: SF-295 CNS
[5] = system: OVCAR-3 ovarian
[6] = system: MOLT-4 leukemia
[7] = system: SN12C renal
[8] = system: MDA-MB-435
[9] = system: HL-60(TB) leukemia
[10] = system: OVCAR-5 ovarian
[11] = system: UACC-257 melanoma
[12] = system: OVCAR-4 ovarian
[13] = system: PC-3 prostate
[14] = system: NCI/ADR-RES ovarian
[15] = system: DU-145 prostate
[16] = system: RPMI-8226 leukemia
[17] = system: HCC-2998 colon
[18] = system: HOP-62 NSCLC
[19] = system: OVCAR-8 ovarian
[20] = system: SK-MEL-28 melanoma
[21] = system: HT29 colon
[22] = system: HCT-116 colon
[23] = system: CCRF-CEM leukemia
[24] = system: U251 CNS
[25] = system: HOP-92 NSCLC
[26] = system: SW-620 colon
[27] = system: SNB-75 CNS
[28] = system: CAKI-1 renal
[29] = system: NCI-H460 lung
[30] = system: K-562 leukemia
[31] = system: KM12 colon
[32] = system: ACHN renal
[33] = system: LOX IMVI melanoma
[34] = system: T-47D breast
[35] = system: A549 NSCLC
[36] = system: SK-MEL-5 melanoma
[37] = system: COLO 205 colon
[38] = system: SF-539 CNS
[39] = system: HCT-15 colon
[40] = system: NCI-H226 lung
[41] = system: EKVX NSCLC
[42] = system: MALME-3M melanoma
[43] = system: SNB-19 CNS
[44] = system: MDA-MB-231 breast
[45] = system: RXF 393 renal
[46] = system: UO-31 renal
[47] = system: IGROV1 ovarian
[48] = system: TK-10 renal
[49] = system: HS 578T breast
[50] = system: NCI-H522 lung
[51] = system: M14 melanoma
[52] = system: A498 renal
[53] = system: NCI-H23 lung
[54] = system: MCF7 breast
[55] = system: SK-MEL-2 melanoma

## O=C(C[Si](CC(=O)c1cccc(C(F)(F)F)c1)CC(=O)c1cccc(C(F)(F)F)c1)c1cccc(C(F)(F)F)c1
[1]
  GI50: 2.72 µM
  TGI: 7.19 µM
[2]
  GI50: 2.23 µM
  TGI: 6.28 µM
[3]
  GI50: 3.8 µM
  TGI: 13.9 µM
[4]
  GI50: 2.88 µM
  TGI: 11.2 µM
[5]
  GI50: 3.32 µM
  TGI: 10.5 µM
[6]
  GI50: 2.81 µM
  TGI: 8.24 µM
[7]
  GI50: 3.03 µM
  TGI: 10.1 µM
[8]
  GI50: 3.27 µM
  TGI: 10.4 µM
[9]
  GI50: 2.52 µM
  TGI: 5.99 µM
[10]
  GI50: 2.19 µM
  TGI: 6.51 µM
[11]
  GI50: 2.65 µM
  TGI: 6.38 µM
[12]
  GI50: 3.12 µM
  TGI: 12.1 µM
[13]
  GI50: 3.11 µM
  TGI: 11 µM
[14]
  GI50: 3.75 µM
  TGI: 15.4 µM
[15]
  GI50: 4.43 µM
  TGI: 14.8 µM
[16]
  GI50: 2.12 µM
  TGI: 5.71 µM
[17]
  GI50: 3.46 µM
  TGI: 15 µM
[18]
  GI50: 3.44 µM
  TGI: 12 µM
[19]
  GI50: 3.48 µM
  TGI: 10.9 µM
[20]
  GI50: 3.51 µM
  TGI: 13.6 µM
[21]
  GI50: 2.55 µM
  TGI: 12 µM
[22]
  GI50: 2.41 µM
  TGI: 8.87 µM
[23]
  GI50: 3.1 µM
  TGI: 10.6 µM
[24]
  GI50: 3.27 µM
  TGI: 10.4 µM
[25]
  GI50: 2.15 µM
  TGI: 6.43 µM
[26]
  GI50: 3.23 µM
  TGI: 13.3 µM
[27]
  GI50: 2.42 µM
  TGI: 8.81 µM
[28]
  GI50: 3.39 µM
  TGI: 12.9 µM
[29]
  GI50: 3.18 µM
  TGI: 10.4 µM
[30]
  GI50: 3.57 µM
  TGI: 13.4 µM
[31]
  GI50: 3.25 µM
  TGI: 10.1 µM
[32]
  GI50: 2 µM
  TGI: 4.94 µM
[33]
  GI50: 2.94 µM
  TGI: 11.4 µM
[34]
  GI50: 4.48 µM
  TGI: 13.9 µM
[35]
  GI50: 3.39 µM
  TGI: 11.3 µM
[36]
  GI50: 1.63 µM
  TGI: 3.03 µM
[37]
  GI50: 1.67 µM
  TGI: 3.07 µM
[38]
  GI50: 1.85 µM
  TGI: 3.85 µM
[39]
  GI50: 2.06 µM
  TGI: 6.25 µM
[40]
  GI50: 2.11 µM
  TGI: 5.3 µM
[41]
  GI50: 3.1 µM
  TGI: 11.5 µM
[42]
  GI50: 4.03 µM
  TGI: 17.4 µM
[43]
  GI50: 3.88 µM
  TGI: 13.4 µM
[44]
  GI50: 2.3 µM
  TGI: 4.73 µM
[45]
  GI50: 2.07 µM
  TGI: 4.3 µM
[46]
  GI50: 3.2 µM
  TGI: 14.2 µM
[47]
  GI50: 6.24 µM
  TGI: 27.8 µM
[48]
  GI50: 3.52 µM
  TGI: 14.1 µM
[49]
  GI50: 4.51 µM
  TGI: 25.9 µM
[50]
  GI50: 2.6 µM
  TGI: 9.01 µM
[51]
  GI50: 3.16 µM
  TGI: 10.1 µM
[52]
  GI50: 2.34 µM
  TGI: 9.62 µM
[53]
  GI50: 3.27 µM
  TGI: 15.6 µM
[54]
  GI50: 3.05 µM
  TGI: 11.5 µM
[55]
  GI50: 2.28 µM
  TGI: 5.29 µM
